Like-named read-outs stand apart in the source and are kept apart here.
What was measured:
[1] = molecular target: T1, chymotrypsin-like activity of 20S proteasomes in RPMI 8226 cells (Homo sapiens, UniProt P28074); assay: Chymotrypsin-like activity of 20S proteasomes in lysates of treated RPMI 8226 cells; assay type: cell-based; conditions: RPMI-8226, read-out: % inhibition of the chymotrypsin-like activity of 20S proteasomes in RPMI 8226 cell lysates
T1 construct: added to 2.5×10^5/ml RMPI 8226 cells; endogenous in cells; host or cells: RPMI 8226 (ATCC CCL-155)
T1 sequence (P28074 60-263): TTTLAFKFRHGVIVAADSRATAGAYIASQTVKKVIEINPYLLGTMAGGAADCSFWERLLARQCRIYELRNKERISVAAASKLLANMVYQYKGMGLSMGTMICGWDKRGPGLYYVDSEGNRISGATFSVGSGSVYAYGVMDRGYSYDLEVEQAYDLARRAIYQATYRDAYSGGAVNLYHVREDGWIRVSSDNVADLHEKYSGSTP
Method: RPMI 8226 (ATCC, CCL-155), the human multiple myeloma cell line, was cultured in RPMI 1640 medium supplemented with 2 mM L-glutamine, 100 units/ml penicillin, 100 μg/ml streptomycin, 1 mM sodium pyruvate and 10% heat inactivated fetal bovine serum at 37° C., 5% CO2 and 95% humidified air. […] DMSO was used as the vehicle control at a final concentration of 0.1%. Following 1 hr incubation of RMPI 8226 cells with the compounds, the cells were pelleted by centrifugation at 2,000 rpm for 10 sec at room temperature and washed 3× with ice-cold 1× Dulbecco's Phosphate-Buffered Saline (DPBS, Mediatech, Herndon, Va.). DPBS washed cells were lysed on ice for 15 min in lysis buffer (20 mM HEPES, 0.5 mM EDTA, 0.05% Triton X-100, pH 7.3) supplemented with protease inhibitor cocktail (Roche Diagnostics, Indianapolis, Ind.). Cell debris was pelleted by centrifugation at 14,000 rpm for 10 min, 4° C. and supernatants (=cell lysates) were transferred to a new tube. Protein concentration was determined by the BCA protein assay kit (Pierce Biotechnology, Rockford, Ill.). […] The released coumarin (AMC) was measured fluorometrically by using λex=390 nm and λem=460 nm. The assay was performed in a microtiter plate (Corning 3904) and followed kinetically with measurements every five minutes for 2 hr. The total amount of protein used for each assay was 20 μg. The final concentration of Suc-LLVY-AMC and DMSO was 20 μM and 0.2%, respectively.

[2] = system: RPMI 8226; assay: cells
Method: RPMI 8226 (CCL-155), HT-29 (HTB-38), and B16-F10 (CRL-6475) cells were purchased from ATCC. RPMI 8226 cells were maintained in RPMI 1640 media supplemented with 10% (v/v) FBS, 2 mM L-glutamine, 1 mM sodium pyruvate and Penicillin/Streptomycin at 100 IU/ml and 100 μg/ml, respectively. HT-29 cells were maintained in McCoys 5A supplemented with 10% (v/v) FBS, 2 mM L-glutamine, 1 mM sodium pyruvate, 1% (v/v) non-essential amino acids, 10 mM HEPES and Penicillin/Streptomycin at 100 IU/ml and 100 μg/ml, respectively. B16-F10 cells were maintained in DMEM supplemented with 10% (v/v) FBS, 2 mM L-glutamine, 10 mM HEPES and Penicillin/Streptomycin at 100 IU/ml and 100 μg/ml, respectively.
RPMI 8226 cells were seeded at 2×10^4 cells/well in 90 μl RPMI media containing 10% (v/v) FBS or 1% (v/v) FBS into 96 well black-walled, clear-bottom tissue culture plates. […] Formulae II-16, II-17 and Formula II-18 were serially diluted in media containing 1% or 10% FBS and added in triplicate to the test wells. […] The final concentration of Formula II-18 ranged from 2 μM to 630 pM.

[3] = system: MES-SA/Dx5; assay: Cell growth inhibition (resazurin), multidrug resistant MES-SA/Dx5; assay type: cell-based, human; conditions: from EC50 values
[4] = system: MES-SA; assay: Cell growth inhibition (resazurin), MES-SA; assay type: cell-based, human; conditions: from EC50 values
[5] = system: HL-60/MX2; assay: Cell growth inhibition (resazurin), multidrug resistant HL-60/MX2; conditions: from EC50 values
Method: Concentrations ranging from 6.32 μM to 2 nM were tested for II-2 and II-4.
HL-60/MX2 is a multidrug resistant tumor cell line derived from the human promyelocytic leukemia cell line, HL-60 and expresses reduced topoisomerase II activity. […] Mitoxantrone, the topoisomerase II targeting agent was included as a control.

[6] = system: B16-F10; assay: Cell growth inhibition (resazurin), B16-F10; conditions: from EC50 values
[7] = system: HT-29; assay: Cell growth inhibition (resazurin), HT-29; conditions: from EC50 values
[8] = system: HL-60; assay: Cell growth inhibition (resazurin), HL-60; assay type: cell-based, human; conditions: from EC50 values
[9] = system: NCI-H292; assay: Cell growth inhibition (resazurin), NCI-H292; conditions: from EC50 values

`C[C@H]1C(=O)N[C@@]2(C(O)[C@@H]3C=CCCC3)C(=O)O[C@@]12C` (single isomer, unassigned) [Formula II-20] gave an inhibition at 0.001 µM [1] of 3 ± 10%, an inhibition at 0.005 µM [1] of 31 ± 9% and an inhibition at 0.01 µM [1] of 37 ± 3%. The inhibition at 0.05 µM [1] was 64 ± 3%, the inhibition at 0.1 µM [1] was 66 ± 3% and the inhibition at 0.5 µM [1] was 71 ± 2%. It also gave an inhibition at 1 µM [1] of 73 ± 2% and an inhibition at 10 µM [1] of 87 ± 4%.
`C[C@@]12OC(=O)[C@]1([C@@H](O)[C@@H]1C=CCCC1)NC(=O)[C@@H]2CCBr` [Formula II-18] was tested, and the “cytotoxicity against RPMI 8226 in media containing 1% or 10% FBS, in words” value ([2]; 1% or 10% FBS) was “cytotoxic”, the EC50 ([2]; Homo sapiens, RPMI-8226, read-out: 1% FBS, EC50, RPMI 8226, media containing 1% FBS, single experiments) was 15 nM and the EC50 ([2]; Homo sapiens, RPMI-8226, read-out: 10% FBS, EC50, RPMI 8226, media containing 10% FBS, single experiments) was 20 nM. The EC50 ([2]; Homo sapiens, RPMI-8226, read-out: Mean 1% FBS, EC50, RPMI 8226, media containing 1% FBS, mean) was 14 nM, the EC50 ([2]; Homo sapiens, RPMI-8226, read-out: Mean 10% FBS, EC50, RPMI 8226, media containing 10% FBS, mean) was 20 nM and the “change in the mean EC50, 10% FBS relative to 1% FBS” value ([2]; RPMI 8226) was “less than three fold decrease”. The EC50 ([2]; read-out: 1% FBS, EC50, RPMI 8226, media containing 1% FBS, single experiments) was 13 nM, the “cytotoxic activity against MES-SA/Dx5, in words” value [3] was “cytotoxic activity” and the “cytotoxic activity against MES-SA, in words” value [4] was “cytotoxic activity”. For the same molecule, the “cytotoxic activity against HL-60/MX2, in words” value [5] was “retained cytotoxic activity”, the “cytotoxicity against B16-F10, in words” value [6] was “cytotoxic” and the “cytotoxicity against HT-29, in words” value [7] was “cytotoxic”. The “cytotoxic activity against HL-60, in words” value [8] was “retained cytotoxic activity” and the “cytotoxicity against NCI-H292, in words” value [9] was “cytotoxic”.

Reference: US7544814B2, “[3.2.0] Heterocyclic compounds and methods of using the same” (Nereus Pharmaceuticals, Inc., priority 2004, dated 2009)
